The subject of one data set is parkinsonian primates. In words: Assessment of antidyskinetic effect in parkinsonian primates (MPTP, levodopa-induced dyskinesia). The following applies: for Duration of Levodopa-Response / Mean Dyskinesia Score (total period): five MPTP monkeys. The class given is in vivo, cynomolgus monkeys (Macaca fascicularis). As for the experimental part:
Female ovariectomized cynomolgus monkeys (Macaca fascicularis) are used in the assessment. The animals can be rendered parkinsonian by continuous infusion of 1-methyl-4-phenyl-1,2,3,6-tetrahydropyridine (MPTP) until they develop a stable parkinsonian syndrome. After recuperation, animals are treated daily with levodopa until clear and reproducible dyskinesias are developed.
Monkeys are observed through a one-way screen window in their home cage. They are observed and scored repeatedly at baseline and after a standard s.c. dose of levodopa. Locomotor activity is assessed and followed with an electronic monitoring system. Antiparkinsonian responses are evaluated by measuring the locomotor activity and a Parkinson disability scale (see Hadj Tahar A et al, Clin Neuropharmacol 2000; 23:195-202; and Samadi P et al, Neuropharmacology 2003; 45:954-963). Dyskinesias are closely monitored and scored according to a dyskinesia rating scale (also described in Hadj Tahar A et al; and Samadi P et al) every 15 minutes until the end of the effect. The doses of levodopa are chosen to induce motor activation and reproducible dyskinesia but no excessive agitation.
Monkeys are observed for at least two hours following an oral administration of vehicle. On a subsequent day, the dose of levodopa selected is tested once. The animals are observed (with measures of parkinsonian and dyskinetic scores) for the entire duration of the levodopa effect and are also monitored for locomotor activity. This provides vehicle control values as well as levodopa antiparkinsonian and dyskinesia response data for comparison with combinations of a α7-nAChR agonist/positive allosteric modulator and levodopa. The monkeys are then tested with a α7-nAChR agonist/positive allosteric modulator in combination with a fixed dose of levodopa. A suspension for oral administration of the α7-nAChR agonist/positive allosteric modulator is administered before levodopa. After each dose, the animals are observed (with measures of parkinsonian and dyskinetic scores) for the entire duration of effect and monitored for locomotor activity or any change in behavior (e.g. circling, excitement, lethargy and sleepiness).
Using this protocol, compound A-1 at a dose of 20 mg/kg was tested. Results based on five monkeys (levodopa/benserazide doses: 22.5/50 mg; 65/50 mg; 30/50 mg; 35/50 mg; and 25/50 mg) are shown in FIGS. 1-4.

The subject of a further data set is mice. In words: Social Recognition Test in mice. The class given is in vivo, mouse. The following applies: oral, familiar partner at 24 h vs time 0. As for the experimental part:
Social interactions between two experimental animals are influenced by their degree of familiarity: the better they know each other, the less time they spend on mutual scrutiny at each meeting. […] Memory enhancing agents (i.e. oxiracetam) facilitate learning to the extent that the previously met (familiar) partner is still remembered after 24 h, whereas in vehicle treated control animals the memory usually fades after less than 1 hour (Thor and Holloway, 1982) or after 2-3 hours.
Pairs consisting of one adult and one young mouse were assigned at random to the experimental and control groups. In each pair only the adult mouse was orally treated 1 hour before the trial with either vehicle or the test compound. The duration of active contacts of the adult mouse with the young mouse was manually recorded over a period of 3 min, including the following behavioural, approach-related items: sniffing, nosing, grooming, licking, pawing and playing, anogenital exploration and orientation toward the young mouse; orientation, thereby, was defined as tip of nose of the adult mouse less than approximately 1 cm distant from the young mouse's body.
Twenty-four hours after the baseline-test, the adults in each treatment group were confronted again with […] the half of the adult animals were put together with the previously encountered (familiar) partner and the other half with another (unfamiliar) young mouse. Again the duration of active approach-behaviours was recorded during a 3-min period. Prior to re-test no oral injection was given.
In the table the reduction in time scrutinizing the familiar partner at time 24 compared with the familiar partner at time 0 minutes is given (value of zero would signify no reduction).

Data set [1] has as its target T1, human neuronal nAChR α4β2 (Homo sapiens, UniProt P17787+P43681).
T1 construct: expressed in transfected cells; host or cells: human epithelial cell line (named a human embryonic kidney cell line)
In words: similar functional assay in human epithelial cell line stably expressing human α4β2 subtype. The following applies: α7-nAChR against α4β2-nAChR. The class given is cell-based. As for the experimental part: To assess the activity of the compound of the invention on the human neuronal nAChR α4β2, a similar functional assay is carried out using a human epithelial cell line stably expressing the human α4β2 subtype (Michelmore et al., Naunyn-Schmiedeberg's Arch. Pharmacol. (2002) 366, 235).

In another data set the target is T2, human α7-nAChR (Homo sapiens, UniProt P36544).
T2 construct: expressed in transfected cells; host or cells: GH3 cells (rat pituitary cell line)
T2 sequence (P36544 23-502): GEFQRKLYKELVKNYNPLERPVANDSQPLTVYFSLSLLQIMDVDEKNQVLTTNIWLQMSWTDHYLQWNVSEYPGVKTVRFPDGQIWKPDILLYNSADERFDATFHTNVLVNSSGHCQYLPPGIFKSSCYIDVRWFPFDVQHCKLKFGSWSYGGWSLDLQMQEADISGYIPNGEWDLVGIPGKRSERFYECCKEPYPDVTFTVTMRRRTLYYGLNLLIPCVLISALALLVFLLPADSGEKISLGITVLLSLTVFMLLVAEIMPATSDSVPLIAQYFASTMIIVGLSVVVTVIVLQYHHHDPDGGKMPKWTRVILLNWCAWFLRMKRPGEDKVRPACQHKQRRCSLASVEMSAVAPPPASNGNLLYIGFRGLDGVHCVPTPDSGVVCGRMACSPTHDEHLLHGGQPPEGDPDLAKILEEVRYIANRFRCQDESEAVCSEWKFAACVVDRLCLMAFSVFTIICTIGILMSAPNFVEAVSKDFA
In words: functional assay, calcium influx (FLIPR) in GH3 cells recombinantly expressing human α7-nAChR. The following applies: for α7-nAChR activity Efficacy compared to epibatidine (100%): Emax, maximal effect compared to the epibatidine response. The data set is classed as cell-based. The method, then: To assess α7-nAChR activity, a functional assay was employed using GH3 cells that recombinantly expressed human α7-nAChR. 50000 cells per well were seeded 72 h prior to the experiment on black 96-well plates (Costar) and incubated at 37° C. in a humidified atmosphere (5% CO2/95% air). On the day of the experiment, medium was removed by flicking the plates and replaced with 100 μl growth medium containing […] Fluo-4, (Molecular Probes) in the presence of 2.5 mM probenecid (Sigma). The cells were incubated at 37° C. in a humidified atmosphere (5% CO2/95% air) for 1 h. Plates were flicked to remove excess of Fluo-4, washed twice with Hepes-buffered salt solution (in mM: NaCl 130, KCl 5.4, CaCl2 2, MgSO4 0.8, NaH2PO4 0.9, glucose 25, Hepes 20, pH 7.4; HBS) and refilled with 100 μl of HBS containing antagonist when appropriate. The incubation in the presence of the antagonist lasted 3-5 minutes. Plates were placed in the cell plate stage of a FLIPR device (fluorescent imaging plate reader, Molecular Devices, Sunnyvale, Calif., USA). After recording of the baseline (laser: excitation 488 nm at 1 W, CCD camera opening of 0.4 seconds) the agonists (50 μl) were added to the cell plate using the FLIPR 96-tip pipettor while simultaneously recording the fluorescence.
Calcium kinetic data were normalized to the maximal fitted response induced by epibatidine, which is a full agonist at α7-nAChR. Four parameter Hill equations were fitted to the concentration-response. Values of Emax (maximal effect in % compared to the epibatidine response) and EC50 (concentration producing half the maximal effect in μM) were derived from this fit.

Data set [2] is described as follows: Oral bioavailability and brain penetration in mice. The class given is in vivo. The following applies: 30 μmol/kg p.o. The method, then: Compounds were orally (30 μmol/kg) administered. Male mice (30-35 g, OF1/ICstrain) were sacrificed at indicated time points after oral administration. Trunk-blood was collected in EDTA-containing tubes and the brain was removed and immediately frozen on dry ice.
To 100 μl plasma 10 μl internal standard (1.0 μmol of a compound with solubility and ionization properties similar to test compounds) was added and extracted three times with 500 μl dichloromethane. The combined extracts were then dried under a stream of nitrogen and re-dissolved in 100 μl acetonitrile/water (70% acetonitrile). Brains were weighed and homogenized in water (1:5 w/v). Two 100 μl aliquots of each homogenate+10 μl of internal standard (same standard as used for the plasma samples) were extracted three times with 500 μl dichloromethane and further processed as the plasma samples. Samples were separated on Beckmann high-performance liquid chromatography equipment system with an autosampler (Gilson 233XL).
The limit of detection (LOD), defined as the lowest concentration of the extracted standard sample with a signal to noise ratio of ˜3.

Setting [3] is: MPTP monkeys, A-1 20 mg/kg plus levodopa/benserazide, result in words.
Setting [4] is: compound A-1 20 mg/kg oral before levodopa/benserazide.
Setting [5] is: levodopa/benserazide without compound A-1.

Data on four molecules can be found in US11096916B2, “Use of nicotinic acetylcholine receptor alpha 7 activators” (NOVARTIS AG, priority 2009, dated 2021).

The structures appear in SMILES notation.

T1 sequence (P43681 29-627 limits assumed): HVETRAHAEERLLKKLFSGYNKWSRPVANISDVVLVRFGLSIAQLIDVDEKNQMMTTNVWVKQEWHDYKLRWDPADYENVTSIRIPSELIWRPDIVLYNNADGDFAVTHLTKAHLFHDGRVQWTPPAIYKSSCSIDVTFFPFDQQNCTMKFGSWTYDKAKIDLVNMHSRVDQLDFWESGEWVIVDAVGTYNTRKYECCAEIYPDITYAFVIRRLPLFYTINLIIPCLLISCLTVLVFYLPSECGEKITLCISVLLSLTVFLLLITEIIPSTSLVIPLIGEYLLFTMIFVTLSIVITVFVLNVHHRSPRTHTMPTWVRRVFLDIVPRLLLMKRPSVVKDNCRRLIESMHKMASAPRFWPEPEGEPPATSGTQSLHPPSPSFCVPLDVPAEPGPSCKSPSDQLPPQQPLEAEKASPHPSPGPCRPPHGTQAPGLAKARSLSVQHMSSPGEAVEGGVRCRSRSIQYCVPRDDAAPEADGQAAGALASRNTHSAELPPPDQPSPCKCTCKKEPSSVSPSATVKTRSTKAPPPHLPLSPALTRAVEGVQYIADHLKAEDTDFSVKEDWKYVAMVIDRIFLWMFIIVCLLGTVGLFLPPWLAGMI
T1 sequence (P17787 26-502): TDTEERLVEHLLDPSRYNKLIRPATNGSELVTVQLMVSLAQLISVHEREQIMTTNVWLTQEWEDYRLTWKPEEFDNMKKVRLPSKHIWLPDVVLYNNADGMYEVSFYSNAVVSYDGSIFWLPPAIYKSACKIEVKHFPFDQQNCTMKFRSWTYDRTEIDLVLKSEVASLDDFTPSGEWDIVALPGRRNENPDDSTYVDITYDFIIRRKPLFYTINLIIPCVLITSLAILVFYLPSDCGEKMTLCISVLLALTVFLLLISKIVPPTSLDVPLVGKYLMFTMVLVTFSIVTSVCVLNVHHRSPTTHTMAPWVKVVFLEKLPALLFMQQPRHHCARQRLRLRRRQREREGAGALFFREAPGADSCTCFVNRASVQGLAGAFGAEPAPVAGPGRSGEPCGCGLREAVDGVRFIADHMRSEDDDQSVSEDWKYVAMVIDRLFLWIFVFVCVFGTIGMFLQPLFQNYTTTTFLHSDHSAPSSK

For orientation: EC50 means the concentration needed to bring the measured effect to its halfway point. With `C[C@H](OC(=O)N[C@@H]1CN2CCC1CC2)c1ccccc1F` [A-1, (S)-(1-aza-bicyclo[2.2.2]oct-3-yl)-carbamic acid (S)-1-(2-fluoro-phenyl)-ethyl ester], the “antiparkinsonian activity of levodopa (antiparkinsonian score)” value in the data set with parkinsonian primates (setting [3]) was “does not lower”. Besides, the “duration of the antiparkinsonian activity of levodopa” value with parkinsonian primates (setting [3]) was “significantly increases”. Moreover, the levodopa-induced dyskinesias entry in the data set with parkinsonian primates (setting [3]) is reported as “significantly reduces”. Also, in the data set with parkinsonian primates (setting [3]), the “onset of action of levodopa (Elapsed Time after Levodopa Administration)” value is “does not delay”. Besides, the “Duration of Levodopa-Response” value in the data set with parkinsonian primates (setting [4]) amounted to 265 min. In addition, the “Mean Dyskinesia Score (total period)” value in the data set with parkinsonian primates (setting [4]) came to 2.1. Moreover, the “Reduction in time scrutinizing in % ± SEM at 24 h” value (shortened to “Reduction … in % ± SEM at 24 h”) with mice (dose 3 mg/kg) worked out at 52 ± 4%. Moreover, the fold selectivity in data set [1] was 234 fold. For the same molecule, on human α7-nAChR, the “α7-nAChR activity Efficacy compared to epibatidine (100%)” value (from here on “α7-nAChR activity Efficacy … (100%)”) was found to be 83%. The concentration for a half-maximal effect (EC50) on human α7-nAChR (read-out: α7-nAChR activity Potency EC50) is 100 nM. Moreover, the “Brain (pmoles/g ± SD)” value turned out to be 706.3 ± 153.4 pmol/g in data set [2] (0.5 hour); 573.7 ± 109.3 pmol/g in data set [2] (1 hour); 191.9 ± 34.9 pmol/g in data set [2] (2 hour); 104.6 ± 39.6 pmol/g in data set [2] (4 hour); 40.5 ± 12.1 pmol/g in data set [2] (6 hour); 9.1 ± 2.7 pmol/g in data set [2] (24 hour).
In the case of `C[C@H]1[C@H](Oc2ccc(-c3ccc4[nH]ccc4c3)nn2)C2CCN1CC2` [B-13, (2S,3R)-3-[6-(1H-indol-5-yl)-pyridazin-3-yloxy]-2-methyl-1-aza-bicyclo[2.2.2]octane], the “Reduction … in % ± SEM at 24 h” value in the data set with mice (dose 0.3 mg/kg) was determined as 37 ± 7%. This molecule also had a fold selectivity in data set [1] of 324 fold. For the same molecule, the “α7-nAChR activity Efficacy … (100%)” value at human α7-nAChR is recorded as 89%. Moreover, the “Brain (pmoles/g ± SD)” value was found to be 1884 ± 291 pmol/g in data set [2] (0.25 hour); 2960 ± 706 pmol/g in data set [2] (0.5 hour); 2940 ± 335 pmol/g in data set [2] (1 hour); 1260 ± 172 pmol/g in data set [2] (2 hour); 379 ± 134 pmol/g in data set [2] (4 hour); 93 ± 30 pmol/g in data set [2] (8 hour). The “Brain (pmoles/g ± SD)” value in data set [2] (24 hour) came out at 13 ± 4 pmol/g. The “Plasma (pmoles/ml ± SD)” value in data set [2] (0.25 hour) came to 2196 ± 397 pmol/mL; in data set [2] (0.5 hour), 2265 ± 419 pmol/mL; in data set [2] (1 hour), 1554 ± 523 pmol/mL; in data set [2] (2 hour), 1172 ± 252 pmol/mL; in data set [2] (4 hour), 429 ± 167 pmol/mL; in data set [2] (8 hour), 80 ± 23 pmol/mL.
For the molecule `c1cc2cc(-c3cnc(O[C@H]4CCN5CCC[C@@H]4C5)nc3)ccc2[nH]1` [C-1, (4S,5R)-4-[5-(1H-indol-5-yl)-pyrimidin-2-yloxy]-1-aza-bicyclo[3.3.1]nonane], in the data set on mice (dose 0.3 mg/kg), the “Reduction … in % ± SEM at 24 h” value is on record as 51 ± 3%. In data set [1], this molecule came in with a fold selectivity of 388 fold. Also, the “α7-nAChR activity Efficacy … (100%)” value on human α7-nAChR is 84%. In addition, the “Brain (pmoles/g ± SD)” value stood at 620 ± 221 pmol/g in data set [2] (0.25 hour); 1405 ± 539 pmol/g in data set [2] (0.5 hour); 1458 ± 189 pmol/g in data set [2] (1 hour); 1478 ± 259 pmol/g in data set [2] (2 hour); 842 ± 187 pmol/g in data set [2] (4 hour); 362 ± 62 pmol/g in data set [2] (8 hour).
Take `N[C@@H](Cc1ccc(O)c(O)c1)C(=O)O` [levodopa, reference compound]: in the data set on parkinsonian primates (setting [5]), the “Duration of Levodopa-Response” value came out at 230 min and the “Mean Dyskinesia Score (total period)” value is on record as 2.8.
